Laboratory results reported in patent US9513288B2, “Isoform-selective inhibitors and activators of PDE3 cyclic nucleotide phosphodiesterases” (The United States of America, as represented by the …, priority 2001, dated 2016).

Tests used:
Assay type in all cases: cell-based, human
PDE3A1 [1] = experiment: Phosphorylation and 14-3-3 binding of FLAG-tagged PDE3A1 in transfected HEK293 cells; conditions: isoproterenol 90 sec, PMA 10 ng/ml 15 min
Procedure: FIGS. 8A-8C Illustrate phosphorylation of PDE3A1 and PDE3A2 in response to PKA and PKC activation. HEK293 cells were transfected with FLAG-tagged PDE3A2 and PDE3A1. (A) Prior to lysis and immunoprecipitation with anti-FLAG antibodies, cells were treated with 1 µM isoproterenol for 90 sec or 10 ng/ml PMA for 15 min. (B) The experiment was carried out in cells incubated in the absence and presence of 100 μM IBMX before treatment with 1 µM isoproterenol for 90 sec. (C) FLAG-tagged PDE3A2 and PDE3A1, affinity-purified from transfected cells using anti-FLAG antibodies, were incubated in the absence or presence of 10 or 100 nM PKA and 200 μM ATP for 20 min at 30° C. Phosphorylation was analyzed by Western blotting with phosphospecific antibodies as indicated.
Furthermore, when affinity-purified FLAG-tagged PDE3A and PDE3A2 were phosphorylated in vitro by PKA, PDE3A2 was phosphorylated more robustly than PDE3A1 at both S312 and S428 (for both isoforms, S312 was phosphorylated more robustly than S428) […].
Activation of PKC by PMA in transfected HEK293 cells results in selective phosphorylation of PDE3A2 at S428: We compared the effects of PKC activation by PMA on the phosphorylation of FLAG-tagged PDE3A1 and PDE3A2 in transfected HEK293 cells.
Illustrative immunoprecipitation and immunoblotting: Endogenous or recombinant human PDE3A, its fragments or mutants, endogenous 14-3-3 or GST-14-3-3 proteins were immunoprecipitated by incubation overnight at 4° C. with anti-FLAG(M2)-coupled agarose beads or glutathione sepharose beads. Beads were centrifuged (5,000×g, 1 min) and washed four times with 1 ml buffer containing 20 mM MOPS pH 7.2, 15 mM MgCl2, 0.5% NP40 and 150 mM NaCl. Proteins were subjected to SDS-PAGE (8% polyacrylamide) and electrophoretic transfer to nitrocellulose membranes. Membranes were blocked using 5% nonfat milk in Tris-buffered saline (50 mM Tris pH 7.5, 150 mM NaCl, 0.1% Tween-20) for 1 h at room temperature and incubated with primary and HRP-conjugated secondary antibodies prepared in 5% (w/v) bovine serum albumin. Protein bands were visualized using an enhanced chemiluminescence detection system.
(§1) Treatment of cells with pharmacologic agents: HEK293 cells expressing the human PDE3A constructs were incubated at 37° C. in serum-free medium containing isoproterenol for 90 sec or PMA for 15 min. At the end of the incubation period, cells were solubilized in lysis buffer containing 20 mM MOPS pH 7.2, 15 mM MgCl2, 0.5% NP40, 150 mM NaCl, 5 mM EDTA, protease inhibitor cocktail and phosphatase inhibitor cocktail 3. Cellular debris was removed by centrifugation (1,000×g; 5 min), and cleared supernatants were used in the experiments.

PDE3A1 [2] = experiment: cAMP-hydrolytic activity of FLAG-tagged PDE3A1 in transfected HEK293 cells; conditions: 1 μM isoproterenol 90 sec, 1 mM dBcAMP 1 hour, 50 μM 8-pCPT-2′-O-Me-cAMP or 0.1 mM sodium butyrate 1 hour
Procedure: FIG. 3 Illustrates an illustrative effect of d8-pCPT-2′-O-Me-cAMP and sodium butyrate on PDE3A1 activity, wherein HEK293 cells were transfected with FLAG-tagged PDE3A and treated with 50 μM d8-pCPT-2′-O-Me-cAMP, 0.1 mM sodium butyrate or 1 mM dBcAMP for 1 hour. PDE3A activity was assayed as described;
(§2) FIGS. 9A-9B illustrate stimulation of PDE3A2 and PDE3A1 activity in response to PKC and PKA activation. (A) HEK293 cells were transfected with FLAG-tagged PDE3A2, with and without alanine substitution at S428, and treated with 10 ng/ml PMA for 15 min or 1 mM dBcAMP for 1 hour. (B) HEK293 cells were transfected with FLAG-tagged PDE3A1, with and without alanine substitutions at S312 and S428, and treated with 1 μM isoproterenol for 90 sec, 10 ng/ml PMA for 15 min or 1 mM dBcAMP for 1 hour. PDE3 activity was assayed as described. PDE3A constructs were immunoprecipitated with anti-FLAG antibody, and phosphorylation was analyzed by immunoblotting with anti-FLAG and phosphospecific antibodies as indicated; and
(§3) PKA and PKC modulate the catalytic activity of PDE3A and PDE3A2 through distinct molecular mechanisms: In view of the reported effects of PKA and PKC on PDE3A activity^3-6, we examined the effects of phosphorylation at S312 and S428 on the cAMP-hydrolytic activity of PDE3A isoforms in transfected HEK293 cells. […] This stimulation was not observed when cells were treated with either the EPAC activator 8-pCPT-2′-O-Me-cAMP or with sodium butyrate (FIG. 3). […] To determine whether similar consequences of phosphorylation occur in the case of PDE3A isoforms, protein extracts from transfected HEK293 cells, untreated or exposed to either isoproterenol or PMA, were analyzed by gel-filtration chromatography, measurement of catalytic activity and Western blotting. Under basal conditions, PDE3 activity and protein was recovered in a biphasic pattern in low- and high-molecular-weight peaks (FIG. 5).
(§4) Measurement of cAMP-hydrolytic activity: cAMP-hydrolytic activity was quantified at 30° C. by the two-step snake-venom method with [^3H]cAMP (1 μM) as substrate; PDE3 activity was quantified by measuring activity in the absence and presence of cilostamide. The amount of protein used per assay and the incubation times were adjusted to ensure that no more than 20% of the total cyclic nucleotide was hydrolyzed during the assay.
as §1

PDE3A2 = experiment: cAMP-hydrolytic activity of FLAG-tagged PDE3A2 in transfected HEK293 cells; conditions: 10 ng/ml PMA 15 min, 1 mM dBcAMP 1 hour, isoproterenol
Procedure: as §2, §3, §4, §1

CC(C)NCC(O)c1ccc(O)c(O)c1 (stereo not shown) [isoproterenol]
binding of PDE3A1 to endogenous 14-3-3 (co-immunoprecipitation) (PDE3A1 [1]): co-immunoprecipitation of endogenous 14-3-3 | phosphorylation of PDE3A1 at S312 (PDE3A1 [1]; dibutyryl cAMP 1 mM 1 hour, phosphospecific antibodies): phosphorylation of PDE3A1 at S312 | cAMP-hydrolytic activity of PDE3A1 (PDE3A1 [2]): did not stimulate cAMP-hydrolytic activity | cAMP-hydrolytic activity of PDE3A2 (PDE3A2): no stimulation of either isoform
